Source: PubChem BioAssay AID250 (DTP/NCI, 2004)
Several values for one entry are separate records, joined by “and”; a condition that tells them apart may be missing. Identical values can stand only once. Toxic doses and inconclusive results are not listed.

Tested on: BDF1 mice, L1210 leukemia sc, survival T/C
Assay: NCI In Vivo Anticancer Drug Screen. Data for tumor model L1210 Leukemia (subcutaneous) in B6D2F1 (BDF1) mice
Settings: higher = longer survival
Summary of the method: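 Mice carrying transplanted tumors received test compounds, and survival or tumor size was measured. Values are the treated-group measurement (T) divided by that of the vehicle-treated control group (C).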

[1] = endpoint: median survival time, dose: 65.0 mg/kg/injection, schedule: Q01DX Z (sc), vehicle: methylcellulose (MC)
[2] = endpoint: median survival time, dose: 180.0 mg/kg/injection, schedule: Q01DX Z (sc), vehicle: methylcellulose (MC)
[3] = endpoint: median survival time, dose: 300.0 mg/kg/injection, schedule: Q01DX Z (sc), vehicle: methylcellulose (MC)
[4] = endpoint: median survival time, dose: 500.0 mg/kg/injection, schedule: Q01DX Z (sc), vehicle: methylcellulose (MC)
[5] = endpoint: median survival time, dose: 23.0 mg/kg/injection, schedule: Q01DX Z (sc), vehicle: carboxymethylcellulose (CMC)
[6] = endpoint: median survival time, dose: 180.0 mg/kg/injection, schedule: Q01DX Z (sc), vehicle: carboxymethylcellulose (CMC)

C[C@]12C=CC(=O)C=C1CC[C@@H]1[C@@H]2CC[C@]2(C)OC(=O)CC[C@@H]12
T/C (endpoint: median survival time, dose: 23.0 mg/kg/injection, schedule: Q01DX Z (sc), vehicle: methylcellulose (MC)): 100 % of control
T/C (endpoint: median survival time, dose: 39.0 mg/kg/injection, schedule: Q01DX Z (sc), vehicle: methylcellulose (MC)): 100 % of control
T/C [1]: 100 % of control
T/C [2]: 100 % of control
T/C [3]: 100 % of control
T/C [4]: 100 % of control

O=NN(CCF)C(=O)NC1CCCCC1
T/C (endpoint: median survival time, dose: 8.4 mg/kg/injection, schedule: Q01DX Z (sc), vehicle: carboxymethylcellulose (CMC)): 289 % of control
T/C (endpoint: median survival time, dose: 14.0 mg/kg/injection, schedule: Q01DX Z (sc), vehicle: carboxymethylcellulose (CMC)): 347 % of control
T/C (endpoint: median survival time, dose: 23.0 mg/kg/injection, schedule: Q01DX Z (oral), vehicle: carboxymethylcellulose (CMC)): 321 % of control
T/C [5]: 305 % of control
T/C (endpoint: median survival time, dose: 39.0 mg/kg/injection, schedule: Q01DX Z (oral), vehicle: carboxymethylcellulose (CMC)): 242 % of control
T/C (endpoint: median survival time, dose: 65.0 mg/kg/injection, schedule: Q01DX Z (oral), vehicle: carboxymethylcellulose (CMC)): 163 % of control
T/C (endpoint: median survival time, dose: 108.0 mg/kg/injection, schedule: Q01DX Z (oral), vehicle: carboxymethylcellulose (CMC)): 121 % of control

CCOC(=O)CCC(NC(=O)N(CCCl)CCCl)C(=O)OCC (stereo not drawn)
T/C (endpoint: median survival time, dose: 65.0 mg/kg/injection, schedule: Q01DX Z (sc), vehicle: water): 106 % of control
T/C (endpoint: median survival time, dose: 108.0 mg/kg/injection, schedule: Q01DX Z (sc), vehicle: water): 112 % of control
T/C (endpoint: median survival time, dose: 180.0 mg/kg/injection, schedule: Q01DX Z (sc), vehicle: water): 100 % of control
T/C (endpoint: median survival time, dose: 300.0 mg/kg/injection, schedule: Q01DX Z (sc), vehicle: water): 100 % of control
T/C (endpoint: median survival time, dose: 500.0 mg/kg/injection, schedule: Q01DX Z (sc), vehicle: water): 112 % of control

CN(C)[C@@H]1C(=O)C(C(=O)NCc2nc3[nH]cnc(=S)c3[nH]2)=C(O)[C@@]2(O)C(=O)C3=C(O)c4c(O)cccc4[C@@](C)(O)[C@H]3C[C@@H]12
T/C [1]: 100 % of control
T/C (endpoint: median survival time, dose: 108.0 mg/kg/injection, schedule: Q01DX Z (sc), vehicle: methylcellulose (MC)): 100 % of control
T/C [2]: 100 % of control
T/C [3]: 105 % of control
T/C [4]: 175 % of control

Nc1ccc(OC(=O)Oc2ccc(N)cc2)cc1
T/C [6]: 111 % of control
T/C (endpoint: median survival time, dose: 833.0 mg/kg/injection, schedule: Q01DX Z (sc), vehicle: carboxymethylcellulose (CMC)): 100 % of control

COc1cc(NS(C)(=O)=O)ccc1Nc1c2ccccc2nc2c(C)cccc12
T/C (endpoint: mean survival time, dose: 2.5 mg/kg/injection, schedule: Q01DX009 (ip), vehicle: saline): 100 % of control and 114 % of control
T/C (endpoint: mean survival time, dose: 5.0 mg/kg/injection, schedule: Q01DX009 (ip), vehicle: saline): 108 % of control and 103 % of control
T/C (endpoint: mean survival time, dose: 10.0 mg/kg/injection, schedule: Q01DX009 (ip), vehicle: saline): 99 % of control

CCN1C=C/C(=C\C=C/c2cc[n+](CC)c3ccccc23)c2ccccc21
T/C (endpoint: median survival time, dose: 0.05 mg/kg/injection, schedule: Q01DX Z (sc), vehicle: methylcellulose (MC)): 100 % of control
T/C (endpoint: median survival time, dose: 0.08 mg/kg/injection, schedule: Q01DX Z (sc), vehicle: methylcellulose (MC)): 100 % of control
T/C (endpoint: median survival time, dose: 0.14 mg/kg/injection, schedule: Q01DX Z (sc), vehicle: methylcellulose (MC)): 100 % of control
T/C (endpoint: median survival time, dose: 0.23 mg/kg/injection, schedule: Q01DX Z (sc), vehicle: methylcellulose (MC)): 100 % of control
T/C (endpoint: median survival time, dose: 0.39 mg/kg/injection, schedule: Q01DX Z (sc), vehicle: methylcellulose (MC)): 100 % of control
T/C (endpoint: median survival time, dose: 0.65 mg/kg/injection, schedule: Q01DX Z (sc), vehicle: methylcellulose (MC)): 100 % of control
T/C (endpoint: median survival time, dose: 1.08 mg/kg/injection, schedule: Q01DX Z (sc), vehicle: methylcellulose (MC)): 100 % of control
T/C (endpoint: median survival time, dose: 1.8 mg/kg/injection, schedule: Q01DX Z (sc), vehicle: methylcellulose (MC)): 111 % of control
T/C (endpoint: median survival time, dose: 3.0 mg/kg/injection, schedule: Q01DX Z (sc), vehicle: methylcellulose (MC)): 105 % of control

COc1ccc2c(Nc3ccc(NS(C)(=O)=O)cc3)c3ccccc3nc2c1
T/C (endpoint: mean survival time, dose: 6.25 mg/kg/injection, schedule: Q01DX009 (sc), vehicle: saline): 109 % of control

CN(C)N=Nc1ccc(CCCC(=O)NN)cc1
T/C [5]: 109 % of control
T/C (endpoint: median survival time, dose: 39.0 mg/kg/injection, schedule: Q01DX Z (sc), vehicle: carboxymethylcellulose (CMC)): 118 % of control
T/C (endpoint: median survival time, dose: 65.0 mg/kg/injection, schedule: Q01DX Z (sc), vehicle: carboxymethylcellulose (CMC)): 109 % of control
T/C (endpoint: median survival time, dose: 108.0 mg/kg/injection, schedule: Q01DX Z (sc), vehicle: carboxymethylcellulose (CMC)): 109 % of control
T/C [6]: 113 % of control
